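Test compounds were applied to cells in 96-well plates for 48 hours at 5 doses. TGI marks complete inhibition of growth.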
Tests used:
Assay in all cases: DTP human tumour cell line panel, 48 h
786-0 renal = system: 786-0 renal
A498 renal = system: A498 renal
A549 NSCLC = system: A549 NSCLC
ACHN renal = system: ACHN renal
CAKI-1 renal = system: CAKI-1 renal
CCRF-CEM leukemia = system: CCRF-CEM leukemia
COLO 205 colon = system: COLO 205 colon
DLD-1 colon = system: DLD-1 colon
DMS 114 small cell lung = system: DMS 114 small cell lung
DMS 273 small cell lung = system: DMS 273 small cell lung
EKVX NSCLC = system: EKVX NSCLC
HCC-2998 colon = system: HCC-2998 colon
HCT-116 colon = system: HCT-116 colon
HCT-15 colon = system: HCT-15 colon
HL-60(TB) leukemia = system: HL-60(TB) leukemia
HOP-18 NSCLC = system: HOP-18 NSCLC
HOP-92 NSCLC = system: HOP-92 NSCLC
HT29 colon = system: HT29 colon
IGROV1 ovarian = system: IGROV1 ovarian
K-562 leukemia = system: K-562 leukemia
KM20L2 colon = system: KM20L2 colon
LOX IMVI melanoma = system: LOX IMVI melanoma
LXFL 529 NSCLC = system: LXFL 529 NSCLC
M14 melanoma = system: M14 melanoma
M19-MEL melanoma = system: M19-MEL melanoma
MALME-3M melanoma = system: MALME-3M melanoma
MOLT-4 leukemia = system: MOLT-4 leukemia
NCI-H226 lung = system: NCI-H226 lung
NCI-H23 lung = system: NCI-H23 lung
NCI-H522 lung = system: NCI-H522 lung
OVCAR-3 ovarian = system: OVCAR-3 ovarian
OVCAR-4 ovarian = system: OVCAR-4 ovarian
OVCAR-8 ovarian = system: OVCAR-8 ovarian
RPMI-8226 leukemia = system: RPMI-8226 leukemia
RXF 393 renal = system: RXF 393 renal
RXF-631 renal = system: RXF-631 renal
SF-268 CNS = system: SF-268 CNS
SF-295 CNS = system: SF-295 CNS
SF-539 CNS = system: SF-539 CNS
SK-MEL-28 melanoma = system: SK-MEL-28 melanoma
SK-MEL-5 melanoma = system: SK-MEL-5 melanoma
SK-OV-3 ovarian = system: SK-OV-3 ovarian
SN12C renal = system: SN12C renal
SNB-19 CNS = system: SNB-19 CNS
SNB-75 CNS = system: SNB-75 CNS
SNB-78 CNS = system: SNB-78 CNS
SR leukemia = system: SR leukemia
SW-620 colon = system: SW-620 colon
U251 CNS = system: U251 CNS
UACC-257 melanoma = system: UACC-257 melanoma
UACC-62 melanoma = system: UACC-62 melanoma
UO-31 renal = system: UO-31 renal
HOP-62 NSCLC = system: HOP-62 NSCLC
KM12 colon = system: KM12 colon
NCI-H460 lung = system: NCI-H460 lung
OVCAR-5 ovarian = system: OVCAR-5 ovarian
SK-MEL-2 melanoma = system: SK-MEL-2 melanoma
TK-10 renal = system: TK-10 renal

Measured: TGI

C/C(=N\NC(C)(C)C)c1sc(-c2nc(C)c(/C(C)=N/NC(C)(C)C)s2)nc1C
> 100 µM: 786-0 renal | A498 renal | A549 NSCLC | ACHN renal | CAKI-1 renal | CCRF-CEM leukemia | COLO 205 colon | DLD-1 colon | DMS 114 small cell lung | DMS 273 small cell lung | EKVX NSCLC | HCC-2998 colon | HCT-116 colon | HCT-15 colon | HL-60(TB) leukemia | HOP-18 NSCLC | HOP-92 NSCLC | HT29 colon | IGROV1 ovarian | K-562 leukemia | KM20L2 colon | LOX IMVI melanoma | LXFL 529 NSCLC | M14 melanoma | M19-MEL melanoma | MALME-3M melanoma | MOLT-4 leukemia | NCI-H226 lung | NCI-H23 lung | NCI-H522 lung | OVCAR-3 ovarian | OVCAR-4 ovarian | OVCAR-8 ovarian | RPMI-8226 leukemia | RXF 393 renal | RXF-631 renal | SF-268 CNS | SF-295 CNS | SF-539 CNS | SK-MEL-28 melanoma | SK-MEL-5 melanoma | SK-OV-3 ovarian | SN12C renal | SNB-19 CNS | SNB-75 CNS | SNB-78 CNS | SR leukemia | SW-620 colon | U251 CNS | UACC-257 melanoma | UACC-62 melanoma | UO-31 renal

Cc1ccccc1OCC(COC(=O)Nc1ccccc1)OC(=O)Nc1ccccc1 (centres undefined)
15.4 µM: SF-539 CNS
27.8 µM: K-562 leukemia
89.4 µM: SNB-19 CNS
> 100 µM: A498 renal | A549 NSCLC | ACHN renal | CAKI-1 renal | CCRF-CEM leukemia | COLO 205 colon | DLD-1 colon | DMS 114 small cell lung | DMS 273 small cell lung | EKVX NSCLC | HCC-2998 colon | HCT-116 colon | HCT-15 colon | HOP-62 NSCLC | HT29 colon | IGROV1 ovarian | KM12 colon | KM20L2 colon | LXFL 529 NSCLC | M14 melanoma | M19-MEL melanoma | MALME-3M melanoma | MOLT-4 leukemia | NCI-H226 lung | NCI-H23 lung | NCI-H460 lung | NCI-H522 lung | OVCAR-3 ovarian | OVCAR-4 ovarian | OVCAR-5 ovarian | OVCAR-8 ovarian | RPMI-8226 leukemia | RXF-631 renal | SF-268 CNS | SF-295 CNS | SK-MEL-2 melanoma | SK-MEL-28 melanoma | SK-MEL-5 melanoma | SK-OV-3 ovarian | SN12C renal | SR leukemia | SW-620 colon | TK-10 renal | U251 CNS | UACC-257 melanoma | UACC-62 melanoma | UO-31 renal
55.9 µM: LOX IMVI melanoma
86.6 µM: HOP-18 NSCLC
68.7 µM: HL-60(TB) leukemia
38.3 µM: SNB-75 CNS
79 µM: SNB-78 CNS
38.5 µM: HOP-92 NSCLC
43.5 µM: RXF 393 renal
